# Results reported in ChEMBL document CHEMBL1201862, “PubChem BioAssay data set” (2004).
#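 Results reflect a 48-hour exposure of cells in 96-well plates to compound at five concentrations. At the GI50, growth is halved.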 Activity calls are given as the source filed them. Cut-off read from the data, not from the text of the source: active = GI50 up to about 1.1 µM and inactive = higher.
# Columns and labels:
# Assay in all cases: growth of human tumour cells (NCI), 48 h
# CAKI-1 = test system: CAKI-1
# M19-MEL = test system: M19-MEL
# SNB-19 = test system: SNB-19
# RXF 393 = test system: RXF 393
# NCI-H522 = test system: NCI-H522
# EKVX = test system: EKVX
# A498 = test system: A498
# MCF7 = test system: MCF7
# Hs-578T = test system: Hs-578T
# HCC 2998 = test system: HCC 2998
# MOLT-4 = test system: MOLT-4
# KM12 = test system: KM12
# SNB-75 = test system: SNB-75
# PC-3 = test system: PC-3
# TK-10 = test system: TK-10
# CCRF-CEM = test system: CCRF-CEM
# DU-145 = test system: DU-145
# DMS-114 = test system: DMS-114
# COLO 205 = test system: COLO 205
# LOX IMVI = test system: LOX IMVI
# XF498 = test system: XF498
# SR = test system: SR
# SW-620 = test system: SW-620
# SF-539 = test system: SF-539
# SNB-78 = test system: SNB-78
# NCI-H460 = test system: NCI-H460
# OVCAR-5 = test system: OVCAR-5
# K562 = test system: K562
# NCI-H23 = test system: NCI-H23
# M14 = test system: M14
# UACC-257 = test system: UACC-257
# KM-20L2 = test system: KM-20L2
# A549 = test system: A549
# LXFL 529 = test system: LXFL 529
# HCT-15 = test system: HCT-15
# OVCAR-3 = test system: OVCAR-3
# SN12C = test system: SN12C
# HOP-18 = test system: HOP-18
# SK-MEL-28 = test system: SK-MEL-28
# IGROV-1 = test system: IGROV-1
# NCI-H226 = test system: NCI-H226
# MDA-MB-435 = test system: MDA-MB-435
# SK-OV-3 = test system: SK-OV-3
# SK-MEL-2 = test system: SK-MEL-2
# UACC-62 = test system: UACC-62
# T47D = test system: T47D
# HCT-116 = test system: HCT-116
# HL-60 = test system: HL-60
# NCI/ADR-RES = test system: NCI/ADR-RES
# DMS-273 = test system: DMS-273
# Malme-3M = test system: Malme-3M
# SF-295 = test system: SF-295
# SK-MEL-5 = test system: SK-MEL-5
# HOP-62 = test system: HOP-62
# RPMI-8226 = test system: RPMI-8226
# 786-0 = test system: 786-0
# OVCAR-4 = test system: OVCAR-4
# BT-549 = test system: BT-549
# HT-29 = test system: HT-29
# UO-31 = test system: UO-31
# SF-268 = test system: SF-268
# OVCAR-8 = test system: OVCAR-8
# ACHN = test system: ACHN
# HOP-92 = test system: HOP-92
# MDA-N = test system: MDA-N
# MDA-MB-231 = test system: MDA-MB-231
# DLD-1 = test system: DLD-1
# U-251 = test system: U-251
structure (smiles),measurement,setting,value
O=[N+]([O-])c1ccccc1S(=O)(=O)c1ccccc1[N+](=O)[O-],GI50,CAKI-1,> 100 µM (inactive)
same,GI50,M19-MEL,> 100 µM (inactive)
same,GI50,SNB-19,56.8 µM (inactive)
same,GI50,RXF 393,39.5 µM (inactive)
same,GI50,NCI-H522,> 67.6 µM (inactive)
same,GI50,EKVX,> 56.2 µM (inactive)
same,GI50,A498,> 87.7 µM (inactive)
same,GI50,MCF7,> 100 µM (inactive)
same,GI50,Hs-578T,32.4 µM (inactive)
same,GI50,HCC 2998,> 100 µM (inactive)
same,GI50,MOLT-4,> 100 µM (inactive)
same,GI50,KM12,> 72.3 µM (inactive)
same,GI50,SNB-75,21 µM (inactive)
same,GI50,PC-3,> 100 µM (inactive)
same,GI50,TK-10,53.7 µM (inactive)
same,GI50,CCRF-CEM,> 100 µM (inactive)
same,GI50,DU-145,> 100 µM (inactive)
same,GI50,DMS-114,> 90.2 µM (inactive)
same,GI50,COLO 205,> 100 µM (inactive)
same,GI50,LOX IMVI,> 100 µM (inactive)
same,GI50,XF498,30.7 µM (inactive)
same,GI50,SR,> 100 µM (inactive)
same,GI50,SW-620,> 56.2 µM (inactive)
same,GI50,SF-539,54.8 µM (inactive)
same,GI50,SNB-78,16.4 µM (inactive)
same,GI50,NCI-H460,> 100 µM (inactive)
same,GI50,OVCAR-5,> 10 µM (inactive)
same,GI50,K562,> 100 µM (inactive)
same,GI50,NCI-H23,74.5 µM (inactive)
same,GI50,M14,> 100 µM (inactive)
same,GI50,UACC-257,> 100 µM (inactive)
same,GI50,KM-20L2,> 100 µM (inactive)
same,GI50,A549,> 56.2 µM (inactive)
same,GI50,LXFL 529,> 100 µM (inactive)
same,GI50,HCT-15,> 100 µM
same,GI50,OVCAR-3,> 100 µM (inactive)
same,GI50,SN12C,> 100 µM (inactive)
same,GI50,HOP-18,> 83.2 µM (inactive)
same,GI50,SK-MEL-28,> 100 µM (inactive)
same,GI50,IGROV-1,> 84.7 µM (inactive)
same,GI50,NCI-H226,> 79.3 µM (inactive)
same,GI50,MDA-MB-435,> 100 µM (inactive)
same,GI50,SK-OV-3,> 90.8 µM (inactive)
same,GI50,SK-MEL-2,> 100 µM (inactive)
same,GI50,UACC-62,> 100 µM (inactive)
same,GI50,T47D,> 100 µM (inactive)
same,GI50,HCT-116,> 100 µM (inactive)
same,GI50,HL-60,> 100 µM (inactive)
same,GI50,NCI/ADR-RES,> 100 µM (inactive)
same,GI50,DMS-273,> 100 µM (inactive)
same,GI50,Malme-3M,> 100 µM (inactive)
same,GI50,SF-295,36.9 µM (inactive)
same,GI50,SK-MEL-5,> 56.2 µM (inactive)
same,GI50,HOP-62,34.9 µM (inactive)
same,GI50,RPMI-8226,> 92.7 µM (inactive)
same,GI50,786-0,64.6 µM (inactive)
same,GI50,OVCAR-4,> 100 µM (inactive)
same,GI50,BT-549,65.9 µM (inactive)
same,GI50,HT-29,> 100 µM (inactive)
same,GI50,UO-31,> 82.2 µM (inactive)
same,GI50,SF-268,31.7 µM (inactive)
same,GI50,OVCAR-8,> 56.2 µM (inactive)
same,GI50,ACHN,> 90.8 µM (inactive)
same,GI50,HOP-92,32.4 µM (inactive)
same,GI50,MDA-N,> 100 µM (inactive)
same,GI50,MDA-MB-231,> 60.7 µM (inactive)
same,GI50,DLD-1,> 100 µM (inactive)
same,GI50,U-251,28.9 µM (inactive)
O=C(/C=C/c1c(O)ccc2ccccc12)c1cccc2ccccc12,GI50,CAKI-1,> 100 µM (inactive)
same,GI50,M19-MEL,26.1 µM (inactive)
same,GI50,SNB-19,> 89.5 µM (inactive)
same,GI50,RXF 393,> 100 µM (inactive)
same,GI50,NCI-H522,27.5 µM (inactive)
same,GI50,EKVX,> 100 µM (inactive)
same,GI50,A498,> 100 µM (inactive)
same,GI50,HCC 2998,> 100 µM (inactive)
same,GI50,MOLT-4,51.5 µM (inactive)
same,GI50,KM12,> 100 µM (inactive)
same,GI50,SNB-75,> 52.4 µM (inactive)
same,GI50,TK-10,> 100 µM (inactive)
same,GI50,CCRF-CEM,23.7 µM (inactive)
same,GI50,DMS-114,> 59.7 µM (inactive)
same,GI50,COLO 205,> 100 µM (inactive)
same,GI50,LOX IMVI,> 59 µM (inactive)
same,GI50,XF498,> 100 µM (inactive)
same,GI50,SR,36 µM (inactive)
same,GI50,SW-620,> 37.1 µM (inactive)
same,GI50,SF-539,> 100 µM (inactive)
same,GI50,SNB-78,> 100 µM (inactive)
same,GI50,NCI-H460,> 100 µM (inactive)
same,GI50,OVCAR-5,> 100 µM (inactive)
same,GI50,K562,51.5 µM (inactive)
same,GI50,NCI-H23,> 100 µM (inactive)
same,GI50,M14,> 100 µM (inactive)
same,GI50,UACC-257,> 100 µM (inactive)
same,GI50,KM-20L2,> 100 µM (inactive)
same,GI50,A549,> 100 µM (inactive)
same,GI50,LXFL 529,> 83.6 µM (inactive)
same,GI50,HCT-15,> 58.7 µM
same,GI50,OVCAR-3,> 100 µM (inactive)
same,GI50,SN12C,> 100 µM (inactive)
same,GI50,HOP-18,58.6 µM (inactive)
same,GI50,SK-MEL-28,> 100 µM (inactive)
same,GI50,IGROV-1,> 100 µM (inactive)
same,GI50,NCI-H226,> 57.9 µM (inactive)
same,GI50,SK-OV-3,> 100 µM (inactive)
same,GI50,SK-MEL-2,> 95.1 µM (inactive)
same,GI50,UACC-62,> 100 µM (inactive)
same,GI50,HCT-116,57.7 µM (inactive)
same,GI50,HL-60,> 43.8 µM (inactive)
same,GI50,DMS-273,> 100 µM (inactive)
same,GI50,Malme-3M,> 87.5 µM (inactive)
same,GI50,SF-295,> 100 µM (inactive)
same,GI50,SK-MEL-5,> 100 µM (inactive)
same,GI50,HOP-62,> 100 µM (inactive)
same,GI50,RPMI-8226,42.1 µM (inactive)
same,GI50,786-0,> 69.7 µM (inactive)
same,GI50,HT-29,> 72.4 µM (inactive)
same,GI50,UO-31,34 µM (inactive)
same,GI50,SF-268,> 100 µM (inactive)
same,GI50,OVCAR-8,> 100 µM (inactive)
same,GI50,ACHN,> 100 µM (inactive)
same,GI50,HOP-92,> 100 µM (inactive)
same,GI50,DLD-1,> 79.4 µM (inactive)
same,GI50,U-251,> 71.9 µM (inactive)
